# According to patent publication US20090081197A1 (Palatin Technologies, Inc., priority 2007, published 2009):
# Experiments:
# [1] = molecular target: T1, MC4-R (Homo sapiens, UniProt P32245); assay: cAMP agonist stimulation, high receptor density system (10 ng/mL doxycycline); conditions: for Efficacy/Intrinsic Activity: NDP-α-MSH maximal cAMP = 1.0
# [2] = molecular target: MC3-R (Homo sapiens, UniProt P41968); assay: Competitive inhibition assay using [I^125]-NDP-α-MSH, hMC3-R membranes; format: binding; set-up: expressed in transfected cells; conditions: for inhibition at 1 µM: 1 μM test compound, read-out: Inhibition at 1 μM (NDP-α-MSH) In Normal System, MC3-R; for Ki: read-out: Ki (nM) (NDP-α-MSH) In Normal System, MC3-R
# Procedure: (§1) The ligand concentration used was 0.4 nM for MC3-R and MC5-R, 0.2 nM for MC4-R and 0.1 nM for B16-F10 (MC1-R) membranes. In certain experiments, hMC1-R was also employed.
# (§2) The assay mixture was incubated for 90 minutes at room temperature, then filtered and the membranes washed three times with ice cold buffer. The filter was dried and counted in a gamma counter for remaining radioactivity bound to the membranes. […] Each assay was conducted in triplicate and the actual mean values are described, with results less than 0% reported as 0%.
# [3] = molecular target: MC5-R (Homo sapiens, UniProt P33032); assay: Competitive inhibition assay using [I^125]-NDP-α-MSH, hMC5-R membranes; format: binding; set-up: expressed in transfected cells; conditions: for inhibition at 1 µM: 1 μM test compound, read-out: Inhibition at 1 μM (NDP-α-MSH) In Normal System, MC5-R; for Ki: read-out: Ki (nM) (NDP-α-MSH) In Normal System, MC5-R
# Procedure: as §1, §2
# [4] = molecular target: T2, MC1-R (Mus musculus, UniProt Q01727); assay: Competitive inhibition assay using [I^125]-NDP-α-MSH, B-16 mouse melanoma cell membranes; format: binding; conditions: for inhibition at 1 µM: 1 μM test compound, read-out: Inhibition at 1 μM (NDP-α-MSH) In Normal System, MC1-R; for Ki: read-out: Ki (nM) (NDP-α-MSH) In Normal System, MC1-R
# T2 construct: B-16 mouse melanoma cells (containing MC1-R); endogenous in cells
# Procedure: as §1, §2
# [5] = molecular target: T1, MC4-R; assay: Competitive inhibition assay using [I^125]-NDP-α-MSH, hMC4-R membranes; format: binding; set-up: host or cells: TREx-293 (HEK-293 stably expressing Tet repressor); conditions: for inhibition at 1 µM: 1 μM test compound, read-out: Inhibition at 1 μM (NDP-α-MSH) In Normal System, MC4-R; for Ki: read-out: Ki (nM) (NDP-α-MSH) In Normal System, MC4-R
# Procedure: as §1, §2
# [6] = molecular target: T1, MC4-R; assay: cAMP functional activity assay in HEK-293 cells, normal system; format: cell-based; set-up: expressed in transfected cells; host or cells: HEK-293; conditions: for EC50 / intrinsic activity at MC4-R in a normal system: normal receptor density system; for intrinsic activity at MC4-R in a normal system: NDP-α-MSH = 1.0; for functional status at MC4-R in cAMP assay: normal system, 1 μM concentration where stated
# Procedure: General method for EC50 determination in functional activity assay. […] Data analysis and EC50 values were determined using nonlinear regression analysis with Prism Graph-Pad software.
# Functional status. The agonist/antagonist status with respect to MC1-R, MC-3R, MC4-R and MC5-R of certain compounds of the invention was determined. Antagonistic activity was determined by measuring the inhibition of α-MSH-induced or NDP-α-MSH-induced cAMP levels following exposure to graded doses of compounds as in the preceding descriptions.
# Assay for agonist. Evaluation of the molecules to elicit a functional response in HEK-293 cells expressing MC4-R was accomplished by measuring the accumulation of intracellular cAMP following treatment. Confluent HEK-293 cells expressing MC4-R receptors were detached by enzyme free cell suspension buffer. […] The cells were plated in a 96 well plates at a density of 0.5×10^5 cells per well and pre-incubated for 30 minutes. Test compounds (dissolved in dimethylsulfoxide (DMSO) at a concentration range of 0.05-5000 nM) were added in a total assay volume of 200 μL and cells were incubated for 1 hour at 37° C. The concentration of DMSO was always held at 1% in the assay mixture. NDP-α-MSH was used as the reference agonist. […] Data analysis and EC50 values were determined by using nonlinear regression analysis with Prism Graph-Pad software. […] Compounds with a response ratio of less than 0.1 (10%) were evaluated for antagonistic activity.
# [7] = IP (and IN) food intake, mice; format: in vivo; conditions: mouse, IP, 10 mg/kg, 4 hours; read-out: maximal decrease in food intake
# Procedure: IV and IP food intake and body weight change. Change in food intake and body weight was evaluated for selected compounds. Male Sprague-Dawley rats or male C57BL/6 mice were utilized. Animals were individually housed in conventional plexiglass hanging cages and maintained on a controlled 12 hour on/off light cycle. Water and powdered (LabDiet, 5P00 Prolab RMH 3000) or pelleted (Harlan Teklad 2018 18% Protein Rodent Diet) food was provided ad libitum. For 1 week before treatment, 24-hour food intake and body weight change was recorded to assess a baseline for the group during vehicle treatment. The rats were dosed IV with vehicle or selected compounds (0.5-3 mg/kg, and in some cases up to 10 mg/Kg) or dosed intraperitoneally (IP) with vehicle or selected compounds (0.5-10 mg/kg, and in some cases up to 50 mg/kg). Mice were dosed IP. […] The changes in body weight and food intake for the 48 hour and 72 hour periods after dosing were also measured to determined reversal of changes in body weight and food intake effects back to baseline levels.
# [8] = Penile erection induction in male rats; format: in vivo; conditions: rat, IV; for penile erection response: 1 μg/kg
# Procedure: Penile erection induction. The ability of compounds to induce penile erection (PE) in male rats was evaluated with selected compounds. Male Sprague-Dawley rats weighing 200-250 g were kept on a 12 hour on/off light cycle with food and water ad libitum. All behavioral studies were performed between 10 A.M. and 5 P.M. Groups of 4-8 rats were treated with compounds at a variety of doses via intravenous (IV) or intracerebroventricular (ICV) routes. Immediately after treatment, rats were placed into individual polystyrene cages (27 cm long, 16 cm wide, and 25 cm high) for behavioral observation. […] Controls utilized carrier without the test compound. Mean PEs in control groups were 0.17 to 0.5 PEs/rat by IV administration in various experiments and between 1-2 PEs/rat by ICV administration in various experiments, and thus only PEs with statistically relevant increases over the mean PEs in control groups are reported as inducing PEs. A PE response in IV animals greater than the mean PEs in control groups but less than 1.0 PEs/rat, particularly with less than all animals responding, was treated as equivocal, and not necessarily distinguishable from vehicle control. In selected instances, compounds with equivocal results in the IV model were tested for penile response in an ICV model, and compounds without a statistically relevant increase over the mean PEs in ICV control groups were determined to not induce PEs.
# [9] = molecular target: T1, MC4-R; assay: cAMP agonist stimulation, low receptor density system (0.1 ng/mL doxycycline); conditions: 0.1 ng/mL doxycycline, low receptor density hMC4-R system; NDP-α-MSH maximal cAMP = 1.0
# [10] = ICV food intake and body weight change; format: in vivo; conditions: rat, 1 nmol, 24 hours
# Procedure: ICV food intake and body weight change. Change in food intake and body weight was evaluated for selected compounds. Rats with indwelling intracerebroventricular cannulas (ICV rats) were obtained from Hilltop Lab Animals, Inc. (Scottdale, Pa.). Animals were individually housed in conventional plexiglass hanging cages and maintained on a controlled 12 hour on/off light cycle. Water and powdered (LabDiet, 5P00 Prolab RMH 3000) or pelleted (Harlan Teklad 2018 18% Protein Rodent Diet) food was provided ad libitum. For 1 week before treatment, 24-hour food intake and body weight change was recorded to assess a baseline for the group during vehicle treatment. The rats were dosed ICV with vehicle or selected compounds (1-3 nmol). The changes in body weight and food intake for the 24 hour period after dosing were determined. The changes in body weight and food intake for the 48 hour and 72 hour periods after dosing were also measured to determine reversal of changes in body weight and food intake effects back to baseline levels.
# [11] = 10 ng/mL doxycycline, high receptor density hMC4-R system
# T1 sequence (P32245 whole entry): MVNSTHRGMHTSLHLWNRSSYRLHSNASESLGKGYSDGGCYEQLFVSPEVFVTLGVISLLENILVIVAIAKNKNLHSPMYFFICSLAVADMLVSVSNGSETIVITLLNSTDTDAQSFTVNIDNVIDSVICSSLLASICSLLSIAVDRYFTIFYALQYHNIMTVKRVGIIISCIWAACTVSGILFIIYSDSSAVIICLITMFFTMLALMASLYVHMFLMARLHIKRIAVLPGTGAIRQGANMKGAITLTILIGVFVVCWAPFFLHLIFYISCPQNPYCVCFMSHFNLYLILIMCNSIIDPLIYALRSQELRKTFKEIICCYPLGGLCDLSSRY
# Chain of MC5-R (P33032 whole entry): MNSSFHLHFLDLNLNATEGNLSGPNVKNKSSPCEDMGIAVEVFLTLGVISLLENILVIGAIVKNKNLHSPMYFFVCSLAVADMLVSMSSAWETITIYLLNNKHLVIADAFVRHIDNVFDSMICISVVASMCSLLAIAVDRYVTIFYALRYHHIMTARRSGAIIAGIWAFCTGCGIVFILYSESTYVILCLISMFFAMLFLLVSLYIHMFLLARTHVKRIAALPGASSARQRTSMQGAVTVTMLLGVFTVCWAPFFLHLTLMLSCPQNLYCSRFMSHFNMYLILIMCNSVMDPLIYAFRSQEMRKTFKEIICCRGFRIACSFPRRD
# Chain of MC3-R (P41968 whole entry): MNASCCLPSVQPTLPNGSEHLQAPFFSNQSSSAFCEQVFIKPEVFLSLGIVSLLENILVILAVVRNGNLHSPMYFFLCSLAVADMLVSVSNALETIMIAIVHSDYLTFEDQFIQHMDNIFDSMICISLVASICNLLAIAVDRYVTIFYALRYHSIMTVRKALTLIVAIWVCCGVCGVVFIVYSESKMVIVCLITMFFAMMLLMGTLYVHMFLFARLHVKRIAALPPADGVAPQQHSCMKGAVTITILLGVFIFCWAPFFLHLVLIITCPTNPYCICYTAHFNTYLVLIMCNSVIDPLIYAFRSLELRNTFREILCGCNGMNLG
# T2 sequence (Q01727 whole entry): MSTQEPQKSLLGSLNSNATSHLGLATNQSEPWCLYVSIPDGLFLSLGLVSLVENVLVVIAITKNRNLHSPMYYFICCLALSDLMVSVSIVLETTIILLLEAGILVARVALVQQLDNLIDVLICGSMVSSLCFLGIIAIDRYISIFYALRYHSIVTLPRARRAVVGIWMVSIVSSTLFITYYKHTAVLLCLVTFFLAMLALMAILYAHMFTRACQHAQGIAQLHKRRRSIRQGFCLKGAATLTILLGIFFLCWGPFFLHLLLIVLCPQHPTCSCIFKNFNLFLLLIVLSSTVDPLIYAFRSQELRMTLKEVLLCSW
Compound,EC50 [1] [nM],inhibition at 1 µM [2] [%],Ki [2] [nM],inhibition at 1 µM [3] [%],Ki [3] [nM],inhibition at 1 µM [4] [%],Ki [4] [nM],inhibition at 1 µM [5] [%],Ki [5] [nM],EC50 [6] [nM],inhibition in vivo at 10 mg/kg [7] [%],"EC50 [1, 11] [nM]","Efficacy/Intrinsic Activity [1, 11]",Penile Erection IV [8],penile erection response [8],Efficacy/Intrinsic Activity [9],decrease in body weight [10] [%],decrease in food intake [10] [%],intrinsic activity at MC4-R in a normal system [6],functional status at MC4-R in cAMP assay [6]
"C[C@@H]1CN(C(=O)[C@H](N)Cc2ccc3ccccc3c2)[C@@H](CCCNC(=N)N)CN1C(=O)Cc1ccc2ccccc2c1 [Example 33, N-{3-[(2S)-1-[(R)-2-Amino-3-(naphthlene-2-yl)-propionyl]-5(R)-methyl-4-(2-naphthalen-2-yl-acetyl)-piperazin-2-yl]-propyl}-guanidine]",50,40,596,50,548,43,227,89,19,42,25,,,,,,,,,
"(E)-N—[(R)-2-[(S)-2-(4-Amino-butyl)-4-(2-naphthalen-2-yl-ethyl)-3-oxo-piperazin-1-yl]-1-(2,4-dichloro-benzyl)-2-oxo-ethyl]-3-phenyl-acrylamide [Example 20]",,,648,,398,,502,,6,112,,215,0.38,No,no penile erection response,None,3,4,0.2,partial agonist (intrinsic activity between 0.1 (10%) and 0.7 (70%) is classified as a partial agonist)
"CC(=O)N[C@H](Cc1ccc2ccccc2c1)C(=O)N1C[C@@H](C)N(C(=O)Cc2ccc3ccccc3c2)C[C@@H]1CCCNC(=N)N [Example 32, N-{(R)-2-[(2S,5R)-2-(3-guanidino-propyl)-5-methyl-4-(2-naphthalen-2-yl-acetyl)-piperazin-1-yl]-1-naphthalen-2-ylmethyl-2-oxo-ethyl}-acetamide]",,38,634,44,826,51,406,97,7,7,34,,,,,,,,,
"NCCCC[C@H]1C(=O)N(CCc2ccc3ccccc3c2)CCN1C(=O)[C@@H](Cc1ccc(Cl)cc1Cl)NC(=O)c1ccc(Oc2ccccc2)cc1 [Example 21, N—[(R)-2-[(S)-2-(4-Amino-butyl)-4-(2-naphthalen-2-yl-ethyl)-3-oxo-piperazin-1-yl]-1-(2,4-dichloro-benzyl)-2-oxo-ethyl]-4-phenoxy-benzamide]",,51,,51,,35,,99,,,,,None,No,no penile erection response,None,1,2,,no intrinsic activity (intrinsic activity below 0.1 (10%) is classified as inactive or having no intrinsic activity)
"NCCCC[C@H]1C(=O)N(CCc2ccc3ccccc3c2)CCN1C(=O)[C@@H](Cc1ccc(Cl)cc1Cl)NC(=O)[C@@H]1CC[C@H](c2ccccc2)N1 [Example 18, (2S,5R)-5-phenyl-pyrrolidine-2-carboxylic acid [(R)-2-[(S)-2-(4-amino-butyl)-4-(2-naphthalen-2-yl-ethyl)-3-oxo-piperazin-1-yl]-1-(2,4-dichloro-benzyl)-2-oxo-ethyl]-amide]",281,18,,51,789,0,1370,92,50,,,,0.29,,,None,2,31,0.2,partial agonist (intrinsic activity between 0.1 (10%) and 0.7 (70%) is classified as a partial agonist)
